# Source: paper PMC12799219, “In vitro and in vivo studies on the activity and selectivity of butoconazole in experimental infection by Trypanosoma cruzi” (Memórias do Instituto Oswaldo Cruz, 2026)
# “Also recorded” adds a separate entry of the source. Where two headings read alike, the source gives them in different places.
# What was measured:
# [1] = In vivo pharmacokinetic study, plasma levels by LC-MS/MS; design: species or system BALB/c mice; conditions: mice, single dose 100 mg/kg i.p.
# Method: In vivo pharmacokinetic study - Adult male specific-pathogen-free BALB/c mice, provided by the Faculty of Veterinary Sciences, National University of La Plata (FCV-UNLP) were used. Animals were housed in cages with four animals per cage, under a 12 h light/dark cycle and controlled temperature, provided with water and food ad libitum and environmental enrichment. A minimum period of six days was given after transport for physiological acclimatisation before any procedure. Five groups of mice (n = 3 per group) were used, one per sampling time. […] Plasma was obtained immediately after blood collection by centrifugation for 10 min at 4,000 rpm and conserved at -17 °C until quantification. […]
# The equipment used was a Waters Alliance 2695 HPLC coupled to a tandem quadrupole mass spectrometer, Premier XE (Waters Corp.), equipped with an electrospray ionisation source operating in positive mode (ESI+). […] The mass spectrometer was configured to operate in multiple reaction monitoring (MRM) mode, employing two mass transitions for the compound, one for quantification (411.0 > 164.9) and the other for confirmation (413.2 > 164.9).
# Unbound drug concentrations in plasma were estimated by multiplying the analytically determined total drug concentrations by the unbound fraction predicted by Deep-PK.[27]
# [2] = system: T. cruzi (Y strain) blood trypomastigotes; test: In vitro activity on bloodstream trypomastigotes; format: cell-based, Trypanosoma cruzi; conditions: for EC90 / EC50: Trypanosoma cruzi
# Method: In vitro activity on bloodstream trypomastigotes - Swiss male mice were inoculated with 5 x 10^4 bloodstream trypomastigotes (BT, Y strain, DTU II) and at the parasitaemia peak [8th post-infection (dpi)], euthanised using 3% isoflurane and blood samples obtained by cardiac puncture (CEUA FIOCRUZ L038-2017). Then, 100 μL of parasite suspension (10^7/mL in RPMI medium + 5% FBS) was added to the same volume of RPMI + 5% FBS containing treatment with BTZ (serially diluted - 1:2) at twice the desired final concentration. After 2 and 24 h at 37 °C, the number of live parasites was determined by light microscopy quantification using a Neubauer chamber.[6] Untreated controls were carried out with parasites kept under the same conditions and BZ was run in parallel. The activity of the compounds was expressed by the EC50 and EC90 values. The assays were done at least twice, in duplicate.
# [3] = system: T. cruzi bloodstream trypomastigotes (Y strain); test: Mouse model of acute T. cruzi infection: parasitaemia and mortality; format: in vivo, Swiss male mice; conditions: for mortality (cumulative death) / parasitaemia peak decline at the 8 dpi: assay 1: BZ 25 mg/kg/day p.o., BTZ 45.61 mg/kg/day i.p.; for mortality (cumulative death) / parasitaemia reduction: five days; for parasitaemia peak decline at the 8 dpi: five days from 5 dpi; for animal mortality: assay 2, lower doses: BZ 10 mg/kg/day p.o.
# Method: In vivo analysis in a mouse model of acute T. cruzi infection - Swiss male mice (18 - 20 g) were obtained from the Institute of Sciences and Technologies in Biomodels (ICTB-FIOCRUZ), housed with a maximum of 5 animals per cage and kept in a specific pathogen-free (SPF) room at 20 - 24 °C under a 12 h light/dark cycle. All animals received sterilised water and food ad libitum. The animals were acclimatised for seven days before the experiments. For a proof-of-concept study, animals were infected by i.p (1x10^4) with bloodstream trypomastigotes (Y strain). The drugs administration started at the onset of parasitaemia (5th day dpi), only using mice with detectable parasitaemia.[19] ^, [28] Control mice groups were age-matched and housed under identical conditions. The following experimental groups were used ≥ 3 mice per group: untreated (infected vehicle-treated control) and treated orally (p.o) with BZ (10, 25 and 100 mg/kg/day), corresponding to suboptimal and optimal doses of the reference drug; infected and treated with BTZ (i.p) using concentrations adjusted to be equimolar to BZ doses (18.24, 45.61 and 182.44 mg/kg/day). Also, the following combo was administered: BZ (10 mg/kg/day/p.o) + BTZ (18.24 mg/kg/day/i.p). The animals received the drugs once a day for five consecutive days. A […] optimal dose of BZ (10 mg/kg/day) was chosen to clearly observe any benefit of its association with BTZ. The i.p. route for BTZ was chosen due to its low aqueous solubility.
# Parasitaemia and mortality rate - Parasitaemia was performed by collecting 5 μL of the blood from the tail’s vein, disposing it on a slide and covering with coverslips (18 x 18 mm) for direct counting of parasites observed in 50 fields under light microscope (40X magnification).[19] ^, [28] The mortality was followed daily up to 30 days after the end of treatment and expressed as a percentage of cumulative mortality (% CM).[19] ^, [27] In vivo assays were conducted with n = 5 per group.
# [4] = 2 h, read-out: Activity on T. cruzi (Y strain) blood trypomastigotes EC50
# [5] = 24 h, read-out: Activity on T. cruzi (Y strain) blood trypomastigotes EC50
# [6] = 24 h, read-out: Activity on T. cruzi (Y strain) blood trypomastigotes pEC50 (converted)
# [7] = assay 2, higher doses: BZ 100 mg/kg/day p.o., BTZ 182.44 mg/kg/day i.p.
# [8] = assay 2, lowest doses: BZ 10 mg/kg/day p.o., BTZ 18.24 mg/kg/day i.p.
SMILES,mean peak total plasma concentration [1] [µM],time of mean peak plasma concentration [1] [h],"fold less potent than BZ on bloodstream trypomastigotes ([2]; 24 h, EC50 versus BZ) [fold]",EC90 ([2]; 2 h) [µM],"EC50 [2, 4] [µM]",EC90 ([2]; 24 h) [µM],"EC50 [2, 5] [µM]","EC50 [2, 6] [µM]",mortality (cumulative death) [3] [%],parasitaemia peak decline at the 8 dpi [3] [%],"animal survival [3, 7] [%]","parasitaemia reduction [3, 7]",animal mortality ([3]; BTZ 18.24 mg/kg/day i.p.) [%],"parasitaemia reduction [3, 8]"
"Clc1ccc(CCC(Cn2ccnc2)Sc2c(Cl)cccc2Cl)cc1 (stereo not shown) [BTZ, butoconazole]",25.9,2,2.3,> 20,> 20,18.64 ± 0.11,13.8 ± 0.7,14.1,40,50,100,63%,75,only slightly
"O=C(Cn1ccnc1[N+](=O)[O-])NCc1ccccc1 [BZ, benznidazole]",–,–,–,> 20,> 20,17.5 ± 0.65,5.93 ± 0.15,6.03,0,93,100,suppressed the peak; also recorded: fully suppressed parasitaemia,100,only slightly
